Data on 15 compounds can be found in patent EP4603105A1, “PHARMACEUTICAL COMPOSITION CONTAINING CYCLIC COMPOUND HAVING SELECTIVE KRAS INHIBITORY EFFECT AGAINST HRAS AND NRAS” (CHUGAI SEIYAKU KABUSHIKI KAISHA, priority 2022, dated 2024).

The target of assay [1] is GDP-bound NRAS wild-type protein (Homo sapiens, UniProt P01111). Put plainly: Binding to NRAS by surface plasmon resonance (SPR), KD and KD ratio to KRAS. The settings on record: ratio of KD value for GDP-bound NRAS wild-type protein to KD value for KRAS (SPR). The gist of the method:
(§1)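 Recombinant RAS proteins bearing a biotinylated Avi tag and loaded with GDP served as the captured ligand, recaptured fresh every cycle. Binding responses were referenced to an uncoated surface and a buffer-only blank cycle. Dissociation constants were obtained by 1:1 model fitting at 30°C.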

For assay [2], the system named is human lung cancer strain NCI-H441. Type of assay: cell-based. The gist of the method:
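Signal came from […] measured per well once the reagent was added. Beforehand, cells were cultured at 37°C and 5% carbon dioxide on a compound series serially diluted in dimethyl sulfoxide.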

For assay [3], the target named is HRAS wild-type protein (Homo sapiens, UniProt P01112). Put plainly: Binding to HRAS by surface plasmon resonance (SPR), KD and KD ratio to KRAS. The settings on record: ratio of KD value for HRAS wild-type protein to KD value for KRAS (SPR). The gist of the method: as §1

Molecules are shown by their SMILES. pIC50: −log10 of the molar value.

GDP-bound NRAS wild-type protein, sequence (P01111 whole entry): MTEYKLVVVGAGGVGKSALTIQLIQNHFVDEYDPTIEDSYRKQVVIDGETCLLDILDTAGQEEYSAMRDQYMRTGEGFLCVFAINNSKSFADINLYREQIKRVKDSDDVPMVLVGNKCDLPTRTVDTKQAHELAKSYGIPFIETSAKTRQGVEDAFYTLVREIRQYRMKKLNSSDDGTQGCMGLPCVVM
HRAS wild-type protein, sequence (P01112 whole entry): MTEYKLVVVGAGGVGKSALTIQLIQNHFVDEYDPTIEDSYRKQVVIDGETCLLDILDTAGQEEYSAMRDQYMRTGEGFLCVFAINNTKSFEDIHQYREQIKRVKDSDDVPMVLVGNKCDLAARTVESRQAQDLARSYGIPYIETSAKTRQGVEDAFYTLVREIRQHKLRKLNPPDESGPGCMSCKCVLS

Take `CC[C@H](C)[C@@H]1NC(=O)[C@H](C)N(C)C(=O)C[C@@H](C(=O)N(C)C)N(C)C(=O)[C@H](C2CCCC2)N(C)C(=O)C2(CC(C)(C)C2)NC(=O)[C@@H]2CC(F)(F)CN2C(=O)[C@H](CCc2cc(F)c(C(F)(F)F)c(F)c2)NC(=O)CN(C)C(=O)[C@H](Cc2ccc(C(F)(F)F)cc2)N2CC/C=C\C[C@@H](C2=O)N(C)C(=O)CN(C)C1=O` [PP1707]: in assay [1], the “NRAS /KRAS” value was “AA (a compound having 20 or more is denoted as AA)”. Further, the pIC50 (commonly −log10 of the IC50, conventionally taken in molar units) in assay [2] is 8.13. Further, the “HRAS /KRAS” value in assay [3] was “A (a compound having 10 or more and less than 20 is denoted as A)”.
In the case of `CC[C@H](C)[C@@H]1NC(=O)[C@H](CC(F)F)N(C)C(=O)C[C@@H](C(=O)N(C)C)N(C)C(=O)[C@H](C2CCCC2)N(C)C(=O)C2(CC(C)(C)C2)NC(=O)[C@@H]2CC(F)(F)CN2C(=O)[C@H](CCc2cc(F)c(C(F)(F)F)c(F)c2)NC(=O)CN(C)C(=O)[C@H](Cc2ccc(C(F)(F)F)cc2)N2CC/C=C\C[C@@H](C2=O)N(C)C(=O)CN(C)C1=O` [PP1709], the “NRAS /KRAS” value in assay [1] is “A (a compound having 10 or more and less than 20 is denoted as A)”. In assay [2], this compound showed a pIC50 of 8.42. Also, the “HRAS /KRAS” value in assay [3] is “A (a compound having 10 or more and less than 20 is denoted as A)”.
With `CC[C@H](C)[C@@H]1NC(=O)[C@H](CC(F)(F)F)N(C)C(=O)C[C@@H](C(=O)N(C)C)N(C)C(=O)[C@H](C2CCCC2)N(C)C(=O)C2(CC(C)(C)C2)NC(=O)[C@@H]2CC(F)(F)CN2C(=O)[C@H](CCc2cc(F)c(C(F)(F)F)c(F)c2)NC(=O)CN(C)C(=O)[C@H](Cc2ccc(C(F)(F)F)cc2)N2CC/C=C\C[C@@H](C2=O)N(C)C(=O)CN(C)C1=O` [PP1710], the “NRAS /KRAS” value in assay [1] is “A (a compound having 10 or more and less than 20 is denoted as A)”. In assay [2], the pIC50 was 8.39. In assay [3], the “HRAS /KRAS” value is “B (a compound having 3 or more and less than 10 is denoted as B)”.
As to `CCC[C@H]1C(=O)N[C@@H]([C@@H](C)CC)C(=O)N(C)CC(=O)N(C)[C@H]2C/C=C\CCN(C2=O)[C@@H](Cc2ccc(C(F)(F)F)cc2)C(=O)N(C)CC(=O)N[C@@H](CCc2cc(F)c(C(F)(F)F)c(F)c2)C(=O)N2CC(F)(F)C[C@H]2C(=O)NC2(CC(C)(C)C2)C(=O)N(C)[C@@H](C2CCCC2)C(=O)N(C)[C@H](C(=O)N(C)C)CC(=O)N1C` [PP1711], the “NRAS /KRAS” value in assay [1] was “A (a compound having 10 or more and less than 20 is denoted as A)”. This compound also showed a pIC50 in assay [2] of 8.30. For the same compound, in assay [3], the “HRAS /KRAS” value was “B (a compound having 3 or more and less than 10 is denoted as B)”.
Take `CC[C@H](C)[C@@H]1NC(=O)[C@H](CC2CC2)N(C)C(=O)C[C@@H](C(=O)N(C)C)N(C)C(=O)[C@H](C2CCCC2)N(C)C(=O)C2(CC(C)(C)C2)NC(=O)[C@@H]2CC(F)(F)CN2C(=O)[C@H](CCc2cc(F)c(C(F)(F)F)c(F)c2)NC(=O)CN(C)C(=O)[C@H](Cc2ccc(C(F)(F)F)cc2)N2CC/C=C\C[C@@H](C2=O)N(C)C(=O)CN(C)C1=O` [PP1713]: the “NRAS /KRAS” value in assay [1] is “A (a compound having 10 or more and less than 20 is denoted as A)”. The same compound gave a pIC50 in assay [2] of 8.10. For the same compound, the “HRAS /KRAS” value in assay [3] is “A (a compound having 10 or more and less than 20 is denoted as A)”.
Consider `CCCC[C@H]1C(=O)N[C@@H]([C@@H](C)CC)C(=O)N(C)CC(=O)N(C)[C@H]2C/C=C\CCN(C2=O)[C@@H](Cc2ccc(C(F)(F)F)cc2)C(=O)N(C)CC(=O)N[C@@H](CCc2cc(F)c(C(F)(F)F)c(F)c2)C(=O)N2CC(F)(F)C[C@H]2C(=O)NC2(CC(C)(C)C2)C(=O)N(C)[C@@H](C2CCCC2)C(=O)N(C)[C@H](C(=O)N(C)C)CC(=O)N1C` [PP1714], for which the “NRAS /KRAS” value in assay [1] is “A (a compound having 10 or more and less than 20 is denoted as A)”. In addition, the negative-log IC50 (pIC50) in assay [2] is 8.37. In addition, the “HRAS /KRAS” value in assay [3] was “A (a compound having 10 or more and less than 20 is denoted as A)”.
In the case of `CC[C@H](C)[C@@H]1NC(=O)[C@H](CC(C)C)N(C)C(=O)C[C@@H](C(=O)N(C)C)N(C)C(=O)[C@H](C2CCCC2)N(C)C(=O)C2(CC(C)(C)C2)NC(=O)[C@@H]2CC(F)(F)CN2C(=O)[C@H](CCc2cc(F)c(C(F)(F)F)c(F)c2)NC(=O)CN(C)C(=O)[C@H](Cc2ccc(C(F)(F)F)cc2)N2CC/C=C\C[C@@H](C2=O)N(C)C(=O)CN(C)C1=O` [PP1715], the “NRAS /KRAS” value in assay [1] is “AA (a compound having 20 or more is denoted as AA)”. The compound further gave a negative logarithm of the IC50 (pIC50) in assay [2] of 8.57. For the same compound, the “HRAS /KRAS” value in assay [3] is “A (a compound having 10 or more and less than 20 is denoted as A)”.
`CC[C@H](C)[C@@H]1NC(=O)[C@H](CC2CCC2)N(C)C(=O)C[C@@H](C(=O)N(C)C)N(C)C(=O)[C@H](C2CCCC2)N(C)C(=O)C2(CC(C)(C)C2)NC(=O)[C@@H]2CC(F)(F)CN2C(=O)[C@H](CCc2cc(F)c(C(F)(F)F)c(F)c2)NC(=O)CN(C)C(=O)[C@H](Cc2ccc(C(F)(F)F)cc2)N2CC/C=C\C[C@@H](C2=O)N(C)C(=O)CN(C)C1=O` [PP1716]: the “NRAS /KRAS” value in assay [1] is “AA (a compound having 20 or more is denoted as AA)”. In addition, the pIC50 in assay [2] is 8.42. In addition, the “HRAS /KRAS” value in assay [3] is “A (a compound having 10 or more and less than 20 is denoted as A)”.
For `CC[C@H](C)[C@@H]1NC(=O)[C@H](COC)N(C)C(=O)C[C@@H](C(=O)N(C)C)N(C)C(=O)[C@H](C2CCCC2)N(C)C(=O)C2(CC(C)(C)C2)NC(=O)[C@@H]2CC(F)(F)CN2C(=O)[C@H](CCc2cc(F)c(C(F)(F)F)c(F)c2)NC(=O)CN(C)C(=O)[C@H](Cc2ccc(C(F)(F)F)cc2)N2CC/C=C\C[C@@H](C2=O)N(C)C(=O)CN(C)C1=O` [PP1717], the “NRAS /KRAS” value in assay [1] was “A (a compound having 10 or more and less than 20 is denoted as A)”. The pIC50 in assay [2] is 8.62. Further, the “HRAS /KRAS” value in assay [3] was “A (a compound having 10 or more and less than 20 is denoted as A)”.
As for `CCCOC[C@H]1C(=O)N[C@@H]([C@@H](C)CC)C(=O)N(C)CC(=O)N(C)[C@H]2C/C=C\CCN(C2=O)[C@@H](Cc2ccc(C(F)(F)F)cc2)C(=O)N(C)CC(=O)N[C@@H](CCc2cc(F)c(C(F)(F)F)c(F)c2)C(=O)N2CC(F)(F)C[C@H]2C(=O)NC2(CC(C)(C)C2)C(=O)N(C)[C@@H](C2CCCC2)C(=O)N(C)[C@H](C(=O)N(C)C)CC(=O)N1C` [PP1718], the “NRAS /KRAS” value in assay [1] is recorded as “AA (a compound having 20 or more is denoted as AA)”. Moreover, the pIC50 in assay [2] was 8.60. Besides, the “HRAS /KRAS” value in assay [3] is “A (a compound having 10 or more and less than 20 is denoted as A)”.
As to `CCCN(C)C(=O)[C@@H]1CC(=O)N(C)[C@@H](CC(F)F)C(=O)N[C@@H]([C@@H](C)CC)C(=O)N(C)CC(=O)N(C)[C@H]2C/C=C\CCN(C2=O)[C@@H](Cc2ccc(C(F)(F)F)cc2)C(=O)N(C)CC(=O)N[C@@H](CCc2cc(F)c(C(F)(F)F)c(F)c2)C(=O)N2CCC[C@H]2C(=O)NC2(CC(C)(C)C2)C(=O)N(C)[C@@H](C2CCCC2)C(=O)N1C` [PP1721], in assay [1], the “NRAS /KRAS” value was “A (a compound having 10 or more and less than 20 is denoted as A)”. For the same compound, the pIC50 in assay [2] is 8.00. Further, the “HRAS /KRAS” value in assay [3] was “A (a compound having 10 or more and less than 20 is denoted as A)”.
Regarding `CC[C@H](C)[C@@H]1NC(=O)[C@H](CC(F)(F)F)N(C)C(=O)C[C@@H](C(=O)N(C)C)N(C)C(=O)[C@H](C2CCCC2)N(C)C(=O)C2(CC(C)(C)C2)NC(=O)[C@@H]2CCCN2C(=O)[C@H](CCc2cc(F)c(C(F)(F)F)c(F)c2)NC(=O)CN(C)C(=O)[C@H](Cc2ccc(C(F)(F)F)cc2)N2CC/C=C\C[C@@H](C2=O)N(C)C(=O)CN(C)C1=O` [PP1722], the “NRAS /KRAS” value in assay [1] is on record as “AA (a compound having 20 or more is denoted as AA)”. In assay [2], the pIC50 was 8.74. In addition, in assay [3], the “HRAS /KRAS” value is “A (a compound having 10 or more and less than 20 is denoted as A)”.
`CC[C@H](C)[C@@H]1NC(=O)[C@H](CC(C)C)N(C)C(=O)C[C@@H](C(=O)N(C)C)N(C)C(=O)[C@H](C2CCCC2)N(C)C(=O)C2(CC(C)(C)C2)NC(=O)[C@@H]2CCCN2C(=O)[C@H](CCc2cc(F)c(C(F)(F)F)c(F)c2)NC(=O)CN(C)C(=O)[C@H](Cc2ccc(C(F)(F)F)cc2)N2CC/C=C\C[C@@H](C2=O)N(C)C(=O)CN(C)C1=O` [PP1727]: the “NRAS /KRAS” value in assay [1] is “A (a compound having 10 or more and less than 20 is denoted as A)”. The negative logarithm of the IC50 (pIC50) in assay [2] was 8.40. The “HRAS /KRAS” value in assay [3] is “A (a compound having 10 or more and less than 20 is denoted as A)”.
Consider `CC[C@H](C)[C@@H]1NC(=O)[C@H](CC2CCC2)N(C)C(=O)C[C@@H](C(=O)N(C)C)N(C)C(=O)[C@H](C2CCCC2)N(C)C(=O)C2(CC(C)(C)C2)NC(=O)[C@@H]2CCCN2C(=O)[C@H](CCc2cc(F)c(C(F)(F)F)c(F)c2)NC(=O)CN(C)C(=O)[C@H](Cc2ccc(C(F)(F)F)cc2)N2CC/C=C\C[C@@H](C2=O)N(C)C(=O)CN(C)C1=O` [PP1728], for which, in assay [1], the “NRAS /KRAS” value is “A (a compound having 10 or more and less than 20 is denoted as A)”. In assay [2], this compound had a pIC50 of 7.74. For the same compound, the “HRAS /KRAS” value in assay [3] was “A (a compound having 10 or more and less than 20 is denoted as A)”.
Regarding `CCCN(C)C(=O)[C@@H]1CC(=O)N(C)[C@@H](COC)C(=O)N[C@@H]([C@@H](C)CC)C(=O)N(C)CC(=O)N(C)[C@H]2C/C=C\CCN(C2=O)[C@@H](Cc2ccc(C(F)(F)F)cc2)C(=O)N(C)CC(=O)N[C@@H](CCc2cc(F)c(C(F)(F)F)c(F)c2)C(=O)N2CCC[C@H]2C(=O)NC2(CC(C)(C)C2)C(=O)N(C)[C@@H](C2CCCC2)C(=O)N1C` [PP1729], the “NRAS /KRAS” value in assay [1] is “AA (a compound having 20 or more is denoted as AA)”. Besides, the pIC50 in assay [2] was 7.69. Moreover, the “HRAS /KRAS” value in assay [3] was “A (a compound having 10 or more and less than 20 is denoted as A)”.
